The text below walks through data of ChEMBL document CHEMBL1158215, “Three new cytotoxic sesterterpenes from the marine sponge Hyrtios cf. erectus” (J Nat Prod, 1996).

Converted amounts (≈) assume the structure as drawn.

The assay relates to P388. As to the kind of experiment: Cytotoxicity against mouse P388 cells. The format is functional, cell-based.
Turning to `CC1(C)CCC[C@]2(C)[C@H]3C[C@@H](O)[C@]4(C)[C@H]5OC(=O)C=C5[C@@H](O)C[C@H]4[C@]3(C)CC[C@@H]12`, the 50% inhibitory concentration (IC50) was 0.4 µg/mL (≈ 0.994 µM).
`CC(=O)O[C@@H]1C[C@@H]2[C@@]3(C)CCCC(C)(C)[C@@H]3CC[C@@]2(C)[C@@H]2C[C@H](O)C3=CC(=O)O[C@@H]3[C@@]12C` came in with an IC50 of 2.1 µg/mL (≈ 4.72 µM).
In turn, `CC(=O)OC[C@]1(C)CCC[C@]2(C)[C@H]3CC[C@@]4(C)[C@@H](CC=C5C(=O)O[C@@H](O)[C@@H]54)[C@]3(C)CC[C@@H]12` had an IC50 of 0.9 µg/mL (≈ 2.02 µM).
